Test [1] addresses T1, Endothelin receptor type B (Sus scrofa, UniProt P35463).
T1 sequence (P35463 whole entry): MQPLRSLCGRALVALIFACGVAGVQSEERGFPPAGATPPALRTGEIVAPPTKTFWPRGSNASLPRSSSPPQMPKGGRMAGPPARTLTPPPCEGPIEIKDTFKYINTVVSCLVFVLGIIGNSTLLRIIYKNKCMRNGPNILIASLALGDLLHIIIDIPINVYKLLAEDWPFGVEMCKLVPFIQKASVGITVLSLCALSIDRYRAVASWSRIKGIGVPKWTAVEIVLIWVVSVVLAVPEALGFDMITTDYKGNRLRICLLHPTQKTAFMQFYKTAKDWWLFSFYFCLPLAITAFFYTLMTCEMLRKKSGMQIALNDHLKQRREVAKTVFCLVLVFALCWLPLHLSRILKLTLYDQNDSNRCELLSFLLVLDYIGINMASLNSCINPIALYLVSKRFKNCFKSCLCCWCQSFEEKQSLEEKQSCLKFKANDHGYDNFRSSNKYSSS
Put plainly: Inhibitory activity measured against Endothelin B receptor binding to porcine cerebellum. Type of test: tissue-based.

A further test has as its target T2, Endothelin-1 receptor (Rattus norvegicus, UniProt P26684).
T2 sequence (P26684 whole entry): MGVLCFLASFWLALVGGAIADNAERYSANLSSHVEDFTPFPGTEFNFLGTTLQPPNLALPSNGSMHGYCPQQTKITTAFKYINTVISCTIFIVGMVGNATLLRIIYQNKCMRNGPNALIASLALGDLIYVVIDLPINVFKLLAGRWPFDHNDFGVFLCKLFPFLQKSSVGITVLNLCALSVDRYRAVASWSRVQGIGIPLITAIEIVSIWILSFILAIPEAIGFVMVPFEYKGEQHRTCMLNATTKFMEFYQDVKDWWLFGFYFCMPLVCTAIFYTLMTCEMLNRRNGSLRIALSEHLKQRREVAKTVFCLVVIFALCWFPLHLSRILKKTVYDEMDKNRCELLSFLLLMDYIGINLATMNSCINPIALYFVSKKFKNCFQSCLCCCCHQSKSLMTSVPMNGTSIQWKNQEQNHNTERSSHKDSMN
Put plainly: Inhibitory activity against the Endothelin A receptor of rat MMQ cells. Type of test: cell-based.

What is called pIC50 is the negative decadic logarithm of the IC50, by convention in mol/L. Low readings indicate a high IC50, high ones a low IC50.

SMILES strings stand for the structures. pIC50: −log10 of the molar value.

With `CCCC#CCN1C[C@@H](c2ccc3c(c2)OCO3)[C@H](C(=O)O)[C@H]1c1ccc(OC)cc1`, the pIC50 in test [1] was 5.44; at Endothelin-1 receptor, 6.12. For `COc1ccc([C@@H]2[C@@H](C(=O)O)[C@H](c3ccc4c(c3)OCO4)CN2C(=O)Nc2ccccc2)cc1` the same measures were 5.45 and 5.61. Regarding `CCCCCCN1C[C@@H](c2ccc3c(c2)OCO3)[C@H](C(=O)O)[C@H]1c1ccc(OC)cc1`, the results for the pIC50 (in test [1]; at Endothelin-1 receptor) were 4.63 and 5.54, respectively. For `CCCC(CCC)C(=O)CN1C[C@@H](c2ccc3c(c2)OCO3)[C@H](C(=O)O)[C@H]1c1ccc(OC)cc1`, in that order: 6.55 and 7.07. Regarding `COc1ccc([C@@H]2[C@@H](C(=O)O)[C@H](c3ccc4c(c3)OCO4)CN2CC(=O)N(C)c2ccccc2)cc1`, the results for the negative logarithm of the IC50 (pIC50) (in test [1]; against Endothelin-1 receptor) were 5.93 and 7.30, respectively. For the compound `CC[S+]([O-])CCN1C[C@@H](c2ccc3c(c2)OCO3)[C@H](C(=O)O)[C@H]1c1ccc(OC)cc1` (some centres undefined), the pIC50 is 6.08 in test [1] and 7.36 against Endothelin-1 receptor. `COc1ccc([C@@H]2[C@@H](C(=O)O)[C@H](c3ccc4c(c3)OCO4)CN2CC(N)=O)cc1` had a pIC50 in test [1] of 5.48.

For `COc1ccc([C@@H]2[C@@H](C(=O)O)[C@H](c3ccc4c(c3)OCO4)CN2CC(=O)N2CCCCC2)cc1`, the values for the pIC50 (in test [1]; against Endothelin-1 receptor) were 5.52 and 6.46, respectively.

Take `COc1ccc(NC(=O)N2C[C@@H](c3ccc4c(c3)OCO4)[C@H](C(=O)O)[C@H]2c2ccc(OC)cc2)cc1`: the results for the pIC50 (in test [1]; on Endothelin-1 receptor) were 5.42 and 6.11, respectively. Consider `COc1ccc([C@@H]2[C@@H](C(=O)O)[C@H](c3ccc4c(c3)OCO4)CN2CCOc2ccccc2)cc1`, for which the pIC50 in test [1] was 5.47; on Endothelin-1 receptor it was 6.05. Regarding `COc1ccc([C@@H]2[C@@H](C(=O)O)[C@H](c3ccc4c(c3)OCO4)CN2C(=O)N2CCOCC2)cc1`, the pIC50 was 5.30 in test [1] and 5.97 against Endothelin-1 receptor. For `CCCS(=O)(=O)CCN1C[C@@H](c2ccc3c(c2)OCO3)[C@H](C(=O)O)[C@H]1c1ccc(OC)cc1` the same measures were 6.12 and 7.43. For `CCCCN(CCCC)C(=O)N1C[C@@H](c2ccc3c(c2)OCO3)[C@H](C(=O)O)[C@H]1c1ccc(OC)cc1`, in that order: 5.83 and 6.40. For `C#CCN(C)C(=O)CN1C[C@@H](c2ccc3c(c2)OCO3)[C@H](C(=O)O)[C@H]1c1ccc(OC)cc1` the same measures were 5.40 and 6.97. In the case of `CCCCC(=O)CN1C[C@@H](c2ccc3c(c2)OCO3)[C@H](C(=O)O)[C@H]1c1ccc(OC)cc1`, the pIC50 in test [1] is 5.61; on Endothelin-1 receptor, 6.79. `COc1ccc([C@@H]2[C@@H](C(=O)O)[C@H](c3ccc4c(c3)OCO4)CN2C(=O)COc2ccc(F)cc2)cc1` showed a pIC50 in test [1] of 4.90. In the case of `COCCNC(=O)CN1C[C@@H](c2ccc3c(c2)OCO3)[C@H](C(=O)O)[C@H]1c1ccc(OC)cc1`, the negative-log IC50 (pIC50) in test [1] was 5.43; against Endothelin-1 receptor it was 6.75. For `COc1ccc([C@@H]2[C@@H](C(=O)O)[C@H](c3ccc4c(c3)OCO4)CN2C/C=C/CC(C)C)cc1` the same measures were 4.56 and 5.79.

Turning to `COCCOCCN1C[C@@H](c2ccc3c(c2)OCO3)[C@H](C(=O)O)[C@H]1c1ccc(OC)cc1`, the pIC50 in test [1] is 5.47; at Endothelin-1 receptor, 6.17. For `CCCCN(CCCC)CC(=O)N1C[C@@H](c2ccc3c(c2)OCO3)[C@H](C(=O)O)[C@H]1c1ccc(OC)cc1`, in that order: 4.53 and 5.17. For `CCCCN(C(=O)CN1C[C@@H](c2ccc3c(c2)OCO3)[C@H](C(=O)O)[C@H]1c1ccc(OC)cc1)c1ccccc1`, in that order: 6.51 and 9.09. For `CCCCCN(CCCCC)C(=O)CN1C[C@@H](c2ccc3c(c2)OCO3)[C@H](C(=O)O)[C@H]1c1ccc(OC)cc1`, in that order: 6.50 and 9.25. Take `COc1ccc([C@@H]2[C@@H](C(=O)O)[C@H](c3ccc4c(c3)OCO4)CN2CC(=O)N(C)CC(C)(C)C)cc1`: the figures for the pIC50 (in test [1]; against Endothelin-1 receptor) were 5.74 and 6.95, respectively.

Values taken from ChEMBL document CHEMBL1129506, “2,4-Diarylpyrrolidine-3-carboxylic acids--potent ETA selective endothelin receptor antagonists. 1. Discovery of A-127722” (J Med Chem, 1996).
